Here are results for 5 compounds from patent EP0108147B1, “Use of a protoberberine alkaloid and composition containing same” (MAROKO, Peter R., priority 1982, dated 1983).

The nature of one series: in vivo. The note with it: rat. Also on record: species or system rats. Here is the method: Preferential concentration of berberine in the heart rather than in other thoracic organs or the liver is a sine qua non for a good imaging agent. Berberine level measurements were done spectrophotometrically. The experiment consisted of injecting 3.5 mg/Kg of berberine ([…]) intravenously and killing the rats after 15 minutes, 90 minutes, 6 hours, 24 hours, 48 hours and 1 week. Each group consisted of 5-6 rats. A control group (no berberine administration) was used to determine the absorbance of the different organs at that wave length. […] It was released rapidly from the heart thus showing no significant tendency to accumulate in that organ. Its concentrate was 1, 1 and 3 pg/g in the lungs and 0.2 and 0 in the skeletal muscles or in the blood at the same time intervals.

Another series has as its system dogs. The experiment in a line: Myocardial oxygen consumption (MV02) and epicardial ST segment elevation experiments. It is filed as in vivo. The source says:
These changes were due to lower. myocardial oxygen consumption during the occlusion with berberine treatment. […] This is quite an advanageous therapeutic combination of properties which further distinguish the compounds used in the invention from the conventional drugs.

Series [1] concerns Mongrel dogs. The series can be described thus: Protocol HV: acute left ventricular failure by coronary microsphere embolization, closed chest. It is filed as in vivo. The settings on record: ouabain 0.03 mg/kg during 30 minutes. Here is the method: - Experiments were carried out in 21 mongrel dogs of either sex with body weight between 19 and 39 kg. Anesthesia was induced with sodium pentobarbital, 25 mg/kg of body weight intravenously, and small supplementary doses were given as necessary to maintain a constant level of anesthesia. The dogs were placed in the left lateral position and ventilation was maintained through a cuffed endotracheal tube with a volume-controlled respirator (Harvard Apparatus Co., Millis, Massachusetts). Polyethylene cannuleae were placed into the jugular and femoral veins for intravenous infusions and drug adminstration. Electrocardiograms (lead aVF) were monitored continuously throughout the experiments.
A polyethylene cannula was introduced into the aorta through the left carotid artery to record arterial pressure. (Stantham P23 ID transducer, Stantham Instruments, Inc. Oxnard, California). A Millar microtip transducer catheter (Millar Instruments, Inc., Houston, Texas) was introduced into the left ventricular cavity through the femoral artery to measure left ventricular pressures. For adjustment of zero level, left ventricular pressure was also measured through the fluid-filled lumen in the Millar catheter (Statham P23 ID transducer). The maximal rate of rise of left ventricular pressure, LV dP/dt, was recorded by means of a differentiator. All these parameters were recorded continuously on a polygraph (Gould 2800, Gould Instruments, Cleveland, Ohio). Cardiac output was determined by the thermodilution technique, using a thermistor catheter in the pulmonary artery and calculated by a cardiac output computer (Elecath, Electro- catheter Corp., Rahway, New Jersey). The coefficient of variation for duplicate CO measurements was 5%. In addition to the parameters directly obtained, total peripheral vascular resistance was calculated from the ratio of […] and cardiac output. Stroke volume was calculated by dividing cardiac output by heart rate. Heparin (Invendex) (5000 IU) was administered to avoid clotting of the catheters.
To induce acute left vetricular failure, initially the left main coronary artery was catheterized with a Judkin coronary artery catheter (7F, ISCI Cardiology and Radiology Products, Billerica, Massachusetts) under fluoroscopic control. It was introduced through a femoral artery, and polystyrene microspheres (3M Company, St. Paul, Minnesota) with a diameter of 52. 5 ± 4.0 µm (mean±SD) were injected into the coronary artery. The microspheres were used in a concentration of 1 mg (i.e., 12,000) per ml saline. The first dose of microsphere solution was 0.5 mi/kg body weight, and all subsequent doses were 0.25 ml/kg body weight, administered every 5 minutes. Administration of microspheres was discontinued when LV/dP/dt had been reduced by 30% or more when measured 4 minutes after the last dose. All dogs received prophylactic antiarrhythmic treatment with intravenous lidocaine, 1.5 mg/kg body weight as a bolus 20 min after the end of embolization, followed by a continuous infusion of […].
Forty-five minutes were allowed to elapse to verify the stability of the preparation. If Lv dP/dt or left ventricular end diastolic pressure had changed by 20% or more between 30 and 45 minutes after embolization, the dogs were excluded from this study and not randomized. Forty-five minutes after the end of embolization, the dogs were assigned randomly to three groups: a) Berberine-treated group, 0.2 mg/kg/ min, dissolved in 60 ml of a solution of 5% dextrose in water administered in a constant infusion during 30 minutes; b) ouabain-treated group, 0.03 mg/kg was administered in 60 ml of a 5% solution of dextrose in water during 30 minutes; and c) Control group, administration of 60 ml of a 5% solution of dextrose in water during 30 min. […]

In series [2] the test system is closed-chest anesthetized dogs. The settings on record: for rise of diastolic pressure: only digitalis. Here is the method:
A study was carried out to examine the effects of the simultaneous administration of berberine on digitalis (i.e. ouabain) produced arrhythmias.
The experiments were conducted in closed-chest anesthetized dogs which were randomized to three groups. All received ouabain 0.03 mg/Kg as a bolus intravenously and thereafter a continuous infusion with a constant rate of 0.0006 mg/Kg/min until death. […] The second group received simultaneously berberine 1 mg/Kg intravenously as a bolus and then 0.2 mg/Kg/min as a continous infusion. The third group received berberine only after the appearance of VEA in a frequency of 50% of more of all systoles.
Moreover, the effects of intravenous bolus injection of berberine (0.4 to 1 mg/Kg) was studied (in comparison to dextrose 5% injection).

The subject of series [3] is anesthetized closed chest dogs. The series can be described thus: Association of ouabain and berberine on contractility (LV dP/dt), constant systolic pressure. The note with it: ouabain 0.03 mg/Kg i.v. bolus. It is filed as in vivo. The procedure:
In anesthetized closed chest dogs the systolic arterial pressure was maintained constant with a reservoir full of heparinized blood (as in protocol "M" and "Z" described above) and a "pigtail" and Millar catheter were introduced into the left ventricular cavity (as in protocol "Z" and "HV", described above). All data was recorded on 8 channel polygraph (Gould Instruments) with a paper speed of 200 mm/s when necessary and at 2 mm/s constantly.

Series [4] relates to healthy adult mongrel dogs. The series can be described thus: Protocol M: hemodynamics in anesthetized open-chest dogs, systolic arterial pressure held constant. It is filed as in vivo.
A further series has as its system dog. The series can be described thus: Protocol M simile: high or repetitive infusions in single dogs. It is filed as in vivo. Here is the method: It is noted that the dP/dt increased by 350% after the eighth dose and dF/dt by 450%.
In one dog using protocol M simile, 240 mg/Kg of berberine HCI was administered and dP/dt increased by 75%, aortic flow by 67%, heart rate fell from 150 to 114 beats/min., diastolic aortic pressure fell from 92 to 67 mmHg, and left atrial pressure fell from 8.5 to 7.5 mmHg.
When this type of experiment was repeated with tetrahydropalmatine, a first dose of 3.5 mg/Kg was given without maintaining the pressure constant and arterial pressure fell from 142/115 to 118/90 mmHg. When the second infusion was given with constant pressure, dP/dt increased by 17%.

Series [5] relates to Mongrel dogs. The experiment in a line: Protocol Z: continuous 35 minute infusion in anesthetized open-chest dogs, constant left ventricular pressure. It is filed as in vivo. Here is the method:
Mongrel dogs weighing between 15 and 25 kg were anesthetized with intravenous sodium thiamylal (20 mg/kg initially with additional doses given as needed). The dogs were intubated endotracheally, and respiration was maintained by a Harvard respirator. The chest was then opened in the fourth left intercostal space and the heart suspended temporarily in a pericardial cradle.
Aortic pressures were recorded through a polyethylene cannula introduced through the carotid artery (Statham P23 Db pressure transducer) and electrocardiogram (lead aVF) were recorded throughout the experiment on a polygraph (Gould Instruments). Another polyethylene cannula was placed in the left atrium for measurement of atrial pressure (Statham P23 Db pressure transducer). An electromagnetic flowmeter (Biotonix Laboratories) was placed around the ascending aorta and the aortic flow was recorded on a polygraph. Two catheters were inserted into the left ventricle through a femoral artery.
The first ("pigtail") served as a reference, while the second (Millar microtip transducer catheter) was connected through a Millar transducer (Millar Instruments, Houston, Texas) to the polygraph, where both left ventricular pressure curves were recorded simultaneously. The left ventricular end diastolic pressure was recorded separately through a Millar catheter. The first derivative of the left ventricular pressure (dP/dt) was obtained by electronic differentiation of the left ventricular pulse recorded through the Millar catheter.
A reservoir of blood was connected with the femoral artery in order to maintain constant left ventricular pressure during the experiment. In this protocol, similarly to protocol M, systemic arterial pressure was maintained constant in order to have accurate measurements of dP/dt which represent well left ventricular contractility when the systolic pressure is maintained constant. However, calculated total peripheral resistance will be higher (an underestimation of the fall). After stabilization of hemodynamics as reflected by continuously monitored parameters for 15 minutes, the substances to be studied were infused intravenously using a Harvard infusion pump. Registrations were made every 5 minutes at a paper speed of 200 mm/second, while all the parameters were recorded constantly at a speed of 2 mm/second. The dogs were randomly assigned to several groups: • Group a) Control - in these dogs a solution of 5% dextrose in water was infused in the same quantity as in the berberine treated animals (n = 7).
In all berberine, berberrubine coreximine and tetrahydropalmatine groiups the compounds were infused at constant rate for 35 minutes and the data analyzed at 5 minute intervals. • Group b) Berberine 0.7 mg/Kg/min (n = 10). • Group c) Berberine 0.2 mg/Kg/min (n = 7). • Group d) Berberine 0.02 mg/Kg/min (n = 7). • Group e) Berberrubine 0.2 mg/Kg/min (n = 7). • Group f) Tetrahydropalmatine 0.2 mg/Kg/min (n = 4). • Group g) Coreximine 0.2 mg/Kg/min (n = 8).
Therefore, group b, c and d were used to analyze the various effects of continuous infusion of berberine and its dose response and groups e and f and g used to examine the effects of these three other proberberines. Moreover, their effects were compared to the berberine treated dogs with the same dose (i.e. Group c).

Where two headings read alike, the source gives them in different places.

As to `COc1ccc2cc3[n+](cc2c1OC)CCc1cc2c(cc1-3)OCO2` [berberine (S04), berberine], the “concentrate in the liver” value in the series “in vivo” (15 min) is reported as 0 1l9/g; in “in vivo” (90 min) it was 6 1l9/g; in “in vivo” (6 h), 2 1l9/g. This compound displayed a concentration at 15 min in the series “in vivo” (concentrate in the lungs) of 0.001 ng/g. The same compound returned a concentration at 90 min in the series “in vivo” (concentrate in the lungs) of 0.001 ng/g. In the series “in vivo” (concentrate in the lungs), this compound returned a concentration at 6 h of 0.003 ng/g.

Consider `CC(C)NCC(O)c1ccc(O)c(O)c1` (centres unmarked) [isoproterenol, reference compound], for which the “epicardial ST segment elevations” value in the series on dogs (after coronary artery occlusion) is “increased”. For the same compound, the “mycardial oxygen consumption (MV02)” value with dogs (non-failing heart, dose that increases LV dP/dt similarly) is “significantly augmented”.

Take `C[C@@H]1O[C@@H](O[C@H]2C[C@@H](O)[C@]3(CO)[C@H]4[C@H](O)C[C@]5(C)[C@@H](C6=CC(=O)OC6)CC[C@]5(O)[C@@H]4CC[C@]3(O)C2)[C@H](O)[C@H](O)[C@H]1O` [ouabain, reference compound]: the “hemodynamic parameters from before to 30 minutes after the start of drug administration” value in the series with Mongrel dogs [1] is recorded as “did not change any of the hemodynamic parameters”. Besides, the “dose of ouabain to provoke VT” value in series [2] (control situation, ouabain alone) was found to be 0.04 mg/kg. The “amount of ouabain that provoked VT” value in series [2] (controls, ouabain alone) is 0.048 mg/kg. The “increase in dP/dt, of the initial value of peak LV dP/dt” value worked out at 17±2% in series [3] (5 minutes); 24±3% in series [3] (10 minutes); 34±4% in series [3] (15 minutes); 36±4% in series [3] (20 minutes); 44±6% in series [3] (25 minutes); 49±7% in series [3] (30 minutes). The “flow in the descending aorta” value in series [4] (after ouabain 0.03 mg/Kg i.v. bolus, from 1195 ± 89) turned out to be 1018 ± 93 mL/min. For the same compound, in series [4] (ouabain 0.03 mg/Kg i.v. bolus), the diastolic aortic pressure result is on record as “did not change significantly”. Further, the “increase of calculated peripheral resistance” value in series [4] (ouabain 0.03 mg/Kg i.v. bolus) was 18%. In addition, the “decrease of flow in the descending aorta” value in series [4] (ouabain 0.03 mg/Kg i.v. bolus, 11 dogs, after the 90 minute experiments) is listed as 15%.

Consider `COc1cc2c(cc1OC)[C@@H]1Cc3ccc(OC)c(OC)c3CN1CC2` [tetrahydropalmatine], for which the arterial pressure with dog (first dose 3.5 mg/Kg, pressure not held constant, from 142/115) is on record as 118/90. The “increase of dP/dt” value in the series with dog (second infusion, constant pressure) is 17%. In the series with Mongrel dogs [5] (0.2 mg/Kg/min), the “reduction of calculated peripheral resistance” value was “over 30%”. Further, the “fall of heart rate (HR)” value with Mongrel dogs [5] (0.2 mg/Kg/min (Table XIII)) is on record as 5.5%.

For digitalis [reference compound], the “rise of diastolic pressure” value in series [2] (10 minutes) is 31±9%; in series [2] (20 minutes), 16±11%; in series [2] (30 minutes), 34±15%; in series [2] (60 minutes), 16±7%.
